In PubChem BioAssay AID1645864 (Buhrlage Lab, Dana-Farber Cancer Institute and Novartis …, 2021):
Active and inactive are the calls of the source.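 The calls were made as follows: active = maximal inhibition of USP17 at or above 30% in the confirmation dose-response, a value not among the printed readouts; inactive = the rest.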

Biological target: Ubiquitin carboxyl-terminal hydrolase 17-like protein 5 (Homo sapiens) (UniProt A8MUK1)
Experiment: ubiquitin-specific protease 17 DUB inhibitors, concentration-effect assay, cell-free, verification of initial screening actives (AID 1645864)
Settings: purified USP17, ubiquitin-rhodamine cleavage fluorescence, 3 h

Ubiquitin carboxyl-terminal hydrolase 17-like protein 5 (Homo sapiens), sequence (A8MUK1 whole entry, looked up): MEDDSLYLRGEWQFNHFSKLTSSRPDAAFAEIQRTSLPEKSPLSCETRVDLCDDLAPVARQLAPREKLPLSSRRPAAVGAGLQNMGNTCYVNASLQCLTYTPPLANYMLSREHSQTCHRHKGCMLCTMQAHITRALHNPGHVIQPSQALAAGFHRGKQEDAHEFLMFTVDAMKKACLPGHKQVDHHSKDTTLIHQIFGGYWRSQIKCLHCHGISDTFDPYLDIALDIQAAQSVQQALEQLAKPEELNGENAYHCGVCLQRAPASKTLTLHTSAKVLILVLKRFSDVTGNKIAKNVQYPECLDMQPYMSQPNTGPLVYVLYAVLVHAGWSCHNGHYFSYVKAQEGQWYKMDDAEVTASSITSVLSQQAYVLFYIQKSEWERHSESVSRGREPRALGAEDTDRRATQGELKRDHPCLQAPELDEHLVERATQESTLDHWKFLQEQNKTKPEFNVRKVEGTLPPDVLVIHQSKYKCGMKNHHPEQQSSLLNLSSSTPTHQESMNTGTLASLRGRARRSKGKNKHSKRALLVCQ

IC50 | Compound
9.15 µM | O=c1[nH]c(C2CCN(S(=O)(=O)c3ccc(S(=O)(=O)NC4CCCCC4)cc3)CC2)nc2c1nnn2Cc1c(Cl)cccc1Cl
35.6 µM | CC1CS(=O)(=O)N(c2ccc(C(=O)Nc3ccc4c(c3)OCCO4)cc2)C1=O (stereo not drawn)
2.41 µM | O=C(COc1ccc(Cl)cc1)N1CCc2cc3ccccc3nc21
11.9 µM | O=C1C=C(O)c2c(O)cccc2C1=O
> 50 µM (inactive) | CC1=C[C@H]2N(c3ccc(C)cc31)[C@H](C(=O)c1cccs1)[C@@H](C(=O)c1ccc(F)cc1)[C@]21C(=O)Nc2ccccc21
40.7 µM | COc1ccc(-c2cc(C(C)=O)c(C)n2CCC(=O)Nc2ccc(OC)cc2OC)cc1
7.32 µM | Cc1ccc(-c2nc(Cn3cnc4ccccc4c3=O)cs2)cc1
4.43 µM | CSc1ccccc1NC(=O)c1ccc(-n2cccn2)nn1
> 50 µM (inactive) | O=[N+]([O-])c1ccc2c(c1)nc1n2CCN(Cc2ccco2)C1
> 50 µM (inactive) | O=C(COC(=O)c1ccc2ncsc2c1)Nc1ccccc1F
> 50 µM (inactive) | CC(C)c1nc2sc3c(N(CCO)CCO)ncnc3c2c2c1COC(C)(C)C2
24.2 µM | CC(=O)Nc1ccc(S(=O)(=O)Nc2ccc(Nc3ccc(-n4cccn4)nn3)cc2)cc1
28.4 µM | O=C(NCc1ccc(CN2CCCC2)cc1)c1cc2ccccc2[nH]c1=O
15 µM | COc1cccc(-n2cnc3cc(C(=O)NC4CC4)ccc3c2=O)c1
> 50 µM (inactive) | Cc1cc(C)cc(-n2cnc3cc(C(=O)NCCC4=CCCCC4)ccc32)c1
49.9 µM | Cc1c(C)n(-c2ccc(Br)cn2)c2ncnc(NCCCO)c12
16.8 µM | O=C(Nc1cccc(OC(=O)c2ccc(Cl)cc2)c1)c1ccc(Cl)cc1
29.8 µM | Cc1ccc(NC(=O)CSc2nc3c(cc2C#N)C(=O)CCC3)cc1
43.6 µM | O=S(=O)(Nc1ccc(O)cc1)c1ccc2oc3ccc(S(=O)(=O)Nc4ccc(O)cc4)cc3c2c1
20.2 µM | C/C1=C/CC(O)/C=C/C(C)C(O)C(C)/C=C(\C)C(=O)c2c(O)c(C)cc3c2C(=O)C(Cl)=C(NC(=O)\C=C/C=C/C=C\C(C)C(O)CC1=O)C3=O (stereo not drawn)
0.17 µM | COc1cccc2cc(C(=O)Nc3nc(-c4ccncc4)cs3)oc12
> 50 µM (inactive) | COc1cc(-c2ccno2)ccc1S(=O)(=O)Nc1ccccc1Cl
1.84 µM | O=C(NCc1ccc2c(c1)OCO2)c1[nH]nc2c1COc1ccccc1-2
27.4 µM | N#Cc1c(Cl)cccc1Oc1ccc(S(=O)(=O)N2CCC(O)CC2)cc1
> 50 µM (inactive) | CS(=O)(=O)N1CCCc2cc(C(=O)Nc3ccc(Oc4ccccc4)cc3)ccc21

IC50 | Compound
35.6 µM | O=C1Nc2ccccc2C(=O)C1C(c1ccc(Cl)cc1)C1C(=O)Nc2ccccc2C1=O (stereo not drawn)
4.62 µM | Cc1ccc(NC2=NC(c3ccco3)n3c(nc(C)cc3=O)N2)c(C)c1 (stereo not drawn)
21.1 µM | O=C(COc1cccc2ccc(N3CCC(Cc4ccccc4)CC3)nc12)NCc1ccc(F)cc1
> 50 µM (inactive) | O=C(NCc1cccnc1)c1cnn2c(C(F)(F)F)cc(-c3ccccc3)nc12
4.88 µM | Cc1noc(-c2cc(=O)n(CC(=O)NCc3ccccc3F)c3ccccc23)n1
1.23 µM | COc1ccc(C(=O)Nc2nc(-c3ccc4c(c3)NC(=O)CO4)c(C)s2)cc1OC
39.6 µM | O=C(Cn1c(CSc2ccccc2)nc2ccccc21)Nc1ccccc1F
6.24 µM | COc1cc(O)c2c(O)c3c(cc2c1)CC(C)OC3=O (stereo not drawn)
> 50 µM (inactive) | c1ccc(CN2CCN(c3nc4ccccc4n4nnnc34)CC2)cc1
2.34 µM | COc1cccc(NC(=O)c2cnc3c(c2)c(=O)n(C)c(=O)n3C)c1
> 50 µM (inactive) | CC(C)CCn1c(=O)c2ccccc2n2c(CCC(=O)NC3CCCCCC3)nnc12
17.3 µM | COc1ccc(CN(C(=O)c2cc(-c3ccc(C)cc3)on2)C2CCS(=O)(=O)C2)cc1 (stereo not drawn)
> 50 µM (inactive) | O=S(=O)(Cc1nnc(-c2ccccc2C(F)(F)F)o1)c1ccc(Cl)cc1
> 50 µM (inactive) | Cc1nn(-c2ccccc2)c2c1N=C1C(Cl)=CC(Cl)=CN1C21C(=O)Nc2ccccc21 (stereo not drawn)
31.5 µM | O=C(CCn1c(=O)c2ccccc2n(Cc2cc(=O)n3ccccc3n2)c1=O)NCCc1ccc(Cl)cc1
32.5 µM | Nc1nc(OCc2ccccc2)c2[nH]c(/C=C/c3cccs3)nc2n1
27.5 µM | CCc1ccc(-n2nc(C)c3c2NC(=O)CC3C(=O)c2ccc3c(c2)OCCO3)cc1 (stereo not drawn)
1.42 µM | C/C=C1/C2=CCCN3C(=O)O[C@H]([C@H]1O)[C@H]23
24.1 µM | CCOc1ccc(Nc2cc(C(=O)NCCc3ccccc3)c3ccccc3n2)cc1
42.8 µM | Cc1ccc2[nH]cc(S(=O)(=O)c3ccc(C)c(F)c3)c(=O)c2c1
40.9 µM | CCCN1C=NS(=O)(=O)c2cc(C(=O)Nc3ccc(OC)c(Cl)c3)ccc21
> 50 µM (inactive) | O=C(NCc1ccc(F)cc1)N1CCC2(C1)Nc1cccnc1NC2=NCc1ccccc1 (stereo not drawn)
> 50 µM (inactive) | O=C(Nc1nc2c(s1)COCC2)c1cc(-c2ccco2)[nH]n1
11.5 µM | Cc1cccc(C(=O)Nc2cccc(SC(C(=O)Nc3ccc(O)c(C(=O)O)c3)c3ccccc3)c2)c1 (stereo not drawn)
> 50 µM (inactive) | O=C(COc1nc2ccccc2nc1N1CCOCC1)Nc1cccc(S(=O)(=O)N2CCCCC2)c1

IC50 | Compound
> 50 µM (inactive) | CCn1ccc2c(cc(C(=O)Nc3cccc(OC)c3)n2C)c1=O
4.85 µM | Cc1ccc(NC(=O)Cc2nnc3c(-c4nc(C5CC5)no4)cccn23)cc1
2.54 µM | COc1ccc(OC)c(NC(=O)CSc2nc(C)nc3c2oc2ccccc23)c1
20.5 µM | Cc1noc(-c2cccc(=O)n2CC(=O)Nc2ccc(C)c(C)c2)n1
23.6 µM | CCOc1ccc(NC(=O)Cn2cnc(S(=O)(=O)N3CCc4ccccc43)c2)cc1
34 µM | Cc1nnc(NCc2cccnc2)c2c1nnn2Cc1ccccc1Cl
0.691 µM | COc1cc2c(cc1NC(=O)c1ccc(-n3cnnn3)cc1)oc1ccccc12
> 50 µM (inactive) | Nc1ccc(F)c(NS(=O)(=O)c2ccccc2)c1
> 50 µM (inactive) | O=C(Cc1noc2ccccc12)N1CCN(c2ccc([N+](=O)[O-])cc2)CC1
4.67 µM | COc1ccc2c(c1)CCc1c-2n[nH]c1C(=O)Nc1cc(C)on1
4.26 µM | CCOc1ccc(-c2ccc3nnc(SCC(=O)Nc4cccc(C(C)=O)c4)n3n2)cc1
13.1 µM | COc1ccccc1CNC(=O)CCCCn1c(=O)c2ccccc2n(Cc2ccccc2C#N)c1=O
7.45 µM | c1ccc(-c2ccc(NCc3ccc4c(c3)OCO4)nn2)cc1
4.16 µM | COc1ccccc1Nc1ncc(C(=O)NCCc2ccc(Cl)cc2)c2ccccc12
> 50 µM (inactive) | O=C1C[C@@H]2O[C@H](CNC(=O)[C@@H]3CN(CCN3C(=O)C3CCOCC3)C(=O)[C@@H]3C[C@@H](CN3Cc3ccc(F)c(F)c3)N1)[C@@H](O)[C@H]2O
> 50 µM (inactive) | Cc1ccc(N=Cc2sc(O)c3ccccc23)c(C)c1
8.3 µM | Cc1ccc(NC(=O)/C=C/c2cccc(C(F)(F)F)c2)c(O)c1
15.7 µM | Cc1ccc(NCc2cc3c(C(C)(C)C)nn(-c4ccc(Cl)cc4)c3[nH]c2=O)cc1
> 50 µM (inactive) | CC(=O)NCc1nc(-c2ccc3c(c2)nc(C)c(=O)n3C2CCCC2)no1
32 µM | Cc1ccc2c(c1)[C@]1(C(=O)N2)[C@@H](C(=O)c2ccccc2)[C@]2(C(=O)Nc3ccccc32)[C@@H]2CCCN21
> 50 µM (inactive) | N#C/C(=C\c1ccc(-c2cc(Cl)ccc2Cl)o1)c1nnc2n1CCCCC2
5.33 µM | CC(Nc1ncnc2c1sc1nc(N3CCOCC3)c3c(c12)CCC3)c1ccccc1 (stereo not drawn)
7.47 µM | O=C(Nc1cc(F)c2nc(N3CCOCC3)ccc2c1)C1CC1
> 50 µM (inactive) | COc1cc(Cl)ccc1Oc1ncnc2sc(C)c(C)c12
46.8 µM | O=c1c(OC2O[C@H](CO)[C@H](O)[C@H](O)[C@H]2O)c(-c2ccc(O)cc2)oc2cc(O)cc(O)c12 (stereo partly drawn)

IC50 | Compound
35.2 µM | Cc1ccccc1NC(=O)c1cc(S(=O)(=O)N2CCCCCC2)ccc1Cl
> 50 µM (inactive) | COCCNC(=O)c1cc(-c2cn(-c3ccccn3)c(C)n2)n2ccccc12
16.1 µM | CCN(C(=O)c1cc2c(Cl)nc3ccccc3c2s1)c1ccccc1F
3.52 µM | O=C(Nc1cccc(Cl)c1)N1CCC(c2cc(-c3ccco3)n[nH]2)CC1
23.6 µM | Cc1cccc(N2C(=O)/C(=C\c3ccc4c(c3)OCCO4)c3ccccc3C2=O)c1
21.7 µM | O=C(Nc1ccc(Cl)cc1)Nc1cccn2ncnc12
> 50 µM (inactive) | Cc1cc(Cl)ccc1NC(=O)c1cc(-c2cccnc2)n[nH]1
> 50 µM (inactive) | Cn1ccc2c(cc(C(=O)NCCC3=CCCCC3)n2C)c1=O
> 50 µM (inactive) | O=C1C/C(=C\c2cccc(Cl)c2)Cc2ccccc21
> 50 µM (inactive) | Cc1sc(NC(=O)CN2CCc3ccccc3C2)nc1-c1ccc2c(c1)CCN2C(=O)C1CCCCC1
29.1 µM | Cc1nn(-c2cc(N3CCOCC3)ncn2)c(C)c1CCC(=O)Nc1ccc(C(C)C)cc1
2.06 µM | CC1OC2CC(O)C1(O)C1=C2C(O)=C(C(N)=O)C(=N)C1=O (stereo not drawn)
> 50 µM (inactive) | O=C(CN(Cc1ccc(Cl)cc1)S(=O)(=O)c1ccc(Cl)cc1)N1CCOCC1
24.4 µM | COc1cc2c(oc(=O)c3cc(C)cc(OC)c32)c2c([C@@H]3OC(C)[C@@H](O)[C@@](C)(O)C3O)ccc(O)c12 (stereo partly drawn)
> 50 µM (inactive) | CNC(=O)C1CN(C(=O)c2ccc(OC)cc2)CC12CCCC2 (stereo not drawn)
> 50 µM (inactive) | Cc1cc(C)cc(NC(=O)CN2C(=O)CC(c3ccccc3)Sc3ccccc32)c1 (stereo not drawn)
23.9 µM | Cn1c(COc2ccccc2)nnc1SCC(=O)Nc1ccc(N2CCOCC2)cc1
18.7 µM | COc1ccc(CCNC(=O)c2cn(-c3ccc(F)cc3)nn2)cc1OC
> 50 µM (inactive) | CCc1nc2cc(NC(=O)c3cccc(N4CCCC4=O)c3)ccc2n1C
> 50 µM (inactive) | NC(=O)c1ccc(NC(=O)Cc2cc(-c3ccc(Cl)cc3)on2)cc1
> 50 µM (inactive) | Cc1ccc(C(=O)Nc2cc3c4c(c2)CC(=O)N4CCC3)cc1C
7.76 µM | CCCC1Cc2c(sc3nc(SCC)nc(N)c23)CO1 (stereo not drawn)

Compound | IC50
CO[C@H]1[C@@H](O)[C@H](C)O[C@H](O[C@H]2[C@H](Oc3cccc4c(O)c5c(=O)oc6ccc(C)c7c(=O)oc(c34)c5c67)O[C@H](C)[C@H](O)[C@@H]2O)[C@@H]1O | > 50 µM (inactive)
